Measurements published in patent US20220008451A1, “FLAVIN ADENINE DINUCLEOTIDE (FAD) FOR USE IN THE PREVENTION AND/OR TREATMENT OF CANCER” (priority 2018, published 2022).
pIC50: −log10 of the molar value.

Tests used:
[1] = tested on: MIA Paca-2 cells; experiment: MIA Paca-2 MTT viability test; type: cell-based, human; settings: 120 μM/L, 2 hours
Method: (§1) MIA Paca-2 cells are human pancreatic cancer cells [American Tissue Cell Culture (ATCC, Manassas, Va., USA)] cultured in DMEM medium. The MTT viability test is performed at a cell density of 0.1×10*6 cells/mL. The tested products are incubated for 2 hours at a concentration of 120 μM/L and in triplicate, with culture control (ref: Blank) (100%) and a positive DMSO control (5%). Under these conditions, cell viability is 34% in the presence of FAD alone, 6% with FAD-PEG.

[2] = tested on: Monocytes isolated from peripheral blood (PBMC); experiment: Viability of non-cancerous peripheral blood monocytes (PBMC); type: cell-based
[3] = MIA Paca-2 MTT viability test; type: cell-based, human; settings: human, MIA Paca-2 cells, read-out: cell viability
Method: as §1

[4] = tested on: CEM (myeloid leukaemia) cells; experiment: Viability of CEM myeloid leukaemia cells; type: cell-based; settings: 48 hours incubation; read-out: mean IC50, viability of cancer cells in the lineage
[5] = tested on: Nucleo PyroPhosphatase enzyme; experiment: Protection of FAD against Nucleo PyroPhosphatase hydrolysis (HPLC); type: in vitro ADME; settings: 25° C.
Method: FAD protection in particles in comparison with unbound FAD is studied. Different particles containing FAD are compared to unbound FAD: • The FAD encapsulated with a gold FAD-PEG particle ON is obtained by the ON method described in example 2. • The FAD encapsulated with a gold-FAD-PEG particle IN is obtained by the IN method obtained in example 1. The different particles and the unbound FAD are each placed in a solution of the Nucleo PyroPhosphatase enzyme at 25° C. The concentration of the FAD is monitored over time by HPLC assay.

[6] = tested on: cancer cells in culture; experiment: Growth inhibition of cancer cells in culture; type: cell-based; settings: read-out: inhibitory concentration (IC50) reducing growth of cancer cells in culture by 50%
[7] = Resistance to hydrolysis in serum; type: in vitro ADME; settings: 20 hours
Method: A comparative hydrolysis test of unbound FAD and micrometer-sized FAD-PEG obtained in Example 7 is performed in serum to test resistance to enzymes.

[8] = tested on: murine breast cancer cell line 4T1; experiment: 4T1 breast cancer model in mice; type: in vivo, BALB/c mice; settings: compared to control groups
[9] = tested on: DNA aptamer; experiment: Intercalation in DNA aptamer grafted on gold nanoparticles; type: binding; settings: 5 mg/ml, UV visible and RAMAN
Excerpt: Small molecules with aromatic structures are intercalated into DNA, which is the case of some extremely powerful and effective drugs. The hypothesis that FAD intercalates into DNA has been tested using a DNA aptamer grafted onto the surface of nanoparticles (NP).
The aptamer used is a single-stranded, thiolated DNA sequence of formula 5′HS-TT TTTTTTTTTTTTTTCTTCTCTAGCTGAATAACCGGAAGTAACTCATCGTTTCGATGAGTTACTTCCGGTTATTCAGCTAGAGAAG 3′, grafted to the surface of gold nanoparticles in the presence of a catalyst agent (N-[3-(dimethylamino) propyl]-N′-ethylcarbodiimide/N-hydroxysuccinimide, Sigma-Aldrich) (EDC/NHS), 50 μL, of DNA with a ratio (40 mg/10 mg) to 5 ml of gold NP solution, to allow activation of the carboxylic group (PEG-COOH) on the surface of the nanoparticles for immobilisation of the aptamer by covalent bonds. The bond is made between the carboxyl group of the EDC/NHS-activated PEG and the NH2 groups of the aptamer.
The grafting of the DNA on the surface of the gold nanoparticles is verified by UV spectroscopy (UV-visible absorbance measurements).
The particles were then placed in the presence of FAD or FAG-PEG (5 mg/ml, two formulations) and DNA intercalation, detected and measured by two techniques: UV visible and by RAMAN spectroscopy.

[10] = tested on: HepG2 hepatocellular carcinoma; experiment: Viability of HepG2 cells; type: cell-based; settings: Homo sapiens
[11] = tested on: HT-1080 fibrosarcoma cells; experiment: Viability of HT-1080 cells; type: cell-based; settings: Homo sapiens
[12] = tested on: HT22 cells (murine brain tumour); experiment: HT22 growth inhibition, MTS test; type: cell-based
Method: HT22 cells (murine brain tumour) are tested with the gold-FAD-PEG particle obtained by the IN method.

[13] = tested on: Mouse HEP 1-6 liver cancer cells; experiment: HEP 1-6 liver cancer model in mice; type: in vivo
[14] = tested on: Huh-7replicon; experiment: Viability of Huh-7replicon cells; type: cell-based
[15] = tested on: MiaPaCA2 pancreatic cancer; experiment: Viability of MiaPaCA2 cells (Example 14); type: cell-based
[16] = tested on: MCF7 (breast cancer) cancer cells; experiment: MCF7 growth inhibition, MTS test; type: cell-based; settings: 48 hours
Method: Growth inhibition of MCF7 (breast cancer) cancer cells is tested on MCF7 cells in culture for 48 hours in contact with the gold-FAD-PEG particle with or without a targeting agent obtained by the IN method. […] (Promega—Cell Titer Proliferation Assay).

C[S+](C)[O-] [DMSO, reference compound]
cell viability [1]: 5%

Cc1cc2nc3c(=O)[nH]c(=O)nc-3n(CC(O)C(O)C(O)COP(=O)(O)OP(=O)(O)OC[C@H]3O[C@@H](n4cnc5c(N)ncnc54)C(O)C3O)c2cc1C (stereo partly drawn) [FAD, Flavin Adenine Dinucleotide]
pIC50 ([2]; 48 hours incubation, read-out: IC50, viability of primary non-cancerous cells): < 4.00 | GI50 ([2]; normal blood monocytes PBM cells): > 100 µM | viability at 2 hours, 120 μM/L [3]: 34% | pIC50 [4]: 5.80 | time to full hydrolysis of FAD [5]: ≤ 15 min | pIC50 [6]: 5.30 to 6.30 | hydrolysis in serum [7]: almost completely hydrolyzed | IL-10 content [8]: significantly increased | level of IL-1α [8]: significantly reduced | level of IL-1 β [8]: significantly reduced | level of IL-6 [8]: significantly reduced | level of IL-12P70 [8]: significantly reduced | level of TNF α [8]: significantly reduced | DNA intercalation [9]: intercalates to DNA | pIC50 [10]: 5.74 to 5.96 | pIC50 [11]: 5.74 to 5.96 | pIC50 ([12]; Mus musculus, HT-22, Example 14, read-out: IC50, viability of HT22 neuronal cancer cells): 5.80 | reduction in tumour volume [13]: 24% | pIC50 [14]: 5.74 to 5.96 | viability of the cells ([15]; 90 μM, 24 hours of exposure): significantly altered | pIC50 ([15]; Homo sapiens, MIA PaCa-2, MiaPaCA2): 5.00

CN[C@@H]1C[C@H]2O[C@@](C)([C@@H]1OC)n1c3ccccc3c3c4c(c5c6ccccc6n2c5c31)C(=O)NC4 [staurosporin, reference compound]
GI50 [16]: ~40 µM | GI50 ([12]; read-out: 50% growth inhibition (GI 50), 48 hours, MTS): 2.7 µM
